Data published in ChEMBL document CHEMBL4840357, “Functionalized Dioxonaphthoimidazoliums: A Redox Cycling Chemotype with Potent Bactericidal Activities against Mycobacterium tuberculosis” (J Med Chem, 2021).
Active and inactive are the calls of the source. The rule behind the calls is not given here.

Key:
[1] = tested on: Cell membrane; assay: Induction of membrane permeabilization in Mycobacterium bovis BCG ATCC 35734 at 4 times MIC after 8 hrs by SYTO9 and PI staining based fluorescence assay; format: functional, subcellular; details: Mycobacterium tuberculosis variant bovis BCG
[2] = tested on: Cell membrane; assay: Induction of cell membrane depolarization in Mycobacterium bovis BCG ATCC 35734 at 4 times MIC after 8 hrs by DiOC2 dye based flourescence assay; format: functional, subcellular; details: Mycobacterium tuberculosis variant bovis BCG
[3] = tested on: Mycobacterium tuberculosis variant bovis BCG; assay: Induction of oxidative stress Mycobacterium bovis BCG-pfurA-RFP ATCC 35734 assessed as activation of pfurA after 24 hrs by fluorescence assay; format: functional, organism-based
[4] = tested on: Mycobacterium tuberculosis variant bovis BCG; assay: Antimycobacterial activity against Mycobacterium bovis BCG ATCC 35734 carrying katG loss-of-function mutant assessed fold reduction in MIC at 1 to 2 times of MIC90 incubated for 5 days; format: functional; details: time 5 day
[5] = tested on: Mycobacterium tuberculosis variant bovis BCG; assay: Bactericidal activity against Mycobacterium bovis BCG ATCC 35734 assessed as fold reduction in viability at 40 times MIC90 preincubated for 20 days under oxygen deprived condition followed by compound addition and measured after 5 days; format: functional; details: time 5 day
[6] = tested on: Mycobacterium tuberculosis variant bovis BCG; assay: Ratio of MIC for antimycobacterial activity against Mycobacterium bovis BCG ATCC 35734 in absence of glycerol to MIC for antimycobacterial activity against Mycobacterium bovis BCG ATCC 35734 in presence of glycerol; format: functional
[7] = tested on: Cell membrane; assay: Induction of cell envelope stress in Mycobacterium bovis BCG ATCC 35734 expressing piniBAC RFP at 100 times MIC90 after 24 hrs by fluorescence analysis; format: functional, subcellular; details: Mycobacterium tuberculosis variant bovis BCG
[8] = tested on: Mycobacterium tuberculosis variant bovis BCG; assay: Bactericidal activity against Mycobacterium bovis BCG ATCC 35734 assessed as reduction in colony forming count at 4 times MIC measured over 28 days by time-kill assay; format: functional, organism-based; details: time 28.0 day
[9] = tested on: Mycobacterium tuberculosis variant bovis BCG; assay: Antimycobacterial activity against Mycobacterium bovis BCG ATCC 35734 incubated for 5 days by broth dilution method; format: functional; details: ATCC 35734, 120 h, time 5 day
[10] = tested on: Mycobacterium tuberculosis variant bovis BCG; assay: Bactericidal activity against Mycobacterium bovis BCG ATCC 35734 incubated for 5 days by broth dilution method; format: functional; details: ATCC 35734, 120 h, time 5 day, read-out: MBC99.9
[11] = tested on: Mycobacterium tuberculosis variant bovis BCG; assay: Induction of ROS generation in Mycobacterium bovis BCG ATCC 35734 after 90 mins by cellrox-green reagent based assay; format: functional, organism-based
[12] = tested on: Mycobacterium tuberculosis variant bovis BCG; assay: Bactericidal activity against Mycobacterium bovis BCG ATCC 35734 assessed as fold reduction in viability at 4 times MIC measured over 14 days by time-kill assay; format: functional; details: time 14 day
[13] = tested on: Mycobacterium tuberculosis variant bovis BCG; assay: Bactericidal activity against Mycobacterium bovis BCG ATCC 35734 at 0.5 to 1 times MIC90 incubated for 5 days in presence of N-acetylcysteine; format: functional, organism-based; details: time 5.0 day
[14] = tested on: Mycobacterium tuberculosis variant bovis BCG; assay: Antimycobacterial activity against Mycobacterium bovis BCG ATCC 35734 carrying katG loss-of-function mutant assessed fold reduction in MIC at 1 to 2 times of MIC90 incubated for 5 days under solid agar medium; format: functional, organism-based; details: time 5.0 day
[15] = tested on: Mycobacterium tuberculosis variant bovis BCG; assay: Antimycobacterial activity against Mycobacterium bovis BCG ATCC 35734 carrying katG loss-of-function mutant assessed fold reduction in MIC at 1 to 2 times of MIC90 incubated for 5 days under liquid medium; format: functional, organism-based; details: time 5.0 day
[16] = tested on: Mycobacterium tuberculosis variant bovis BCG; assay: Induction of ROS generation in Mycobacterium bovis BCG ATCC 35734 at 2 times of MIC90 measured upto 24 hrs by cellrox-green reagent based assay; format: functional, organism-based; details: time hrs <=24
[17] = tested on: Mycobacterium tuberculosis variant bovis BCG; assay: Bactericidal activity against Mycobacterium bovis BCG ATCC 35734 at 0.5 to 1 times MIC90 incubated for 5 days in presence of thiourea; format: functional, organism-based; details: time 5.0 day
[18] = tested on: Mycobacterium tuberculosis H37Rv; assay: Activation of Mycobacterium tuberculosis NDH-2 overexpressed in mc24517 inverted membrane vesicles assessed as increase in NADH oxidation; format: cell membranes; details: Membrane vesicle, filed as activator
[19] = tested on: Mycobacterium tuberculosis variant bovis BCG; assay: Bactericidal activity against Mycobacterium bovis BCG ATCC 35734 assessed as reduction in colony forming unit at 0.5 to 1 times MIC90 incubated for 5 days; format: functional, organism-based; details: time 5.0 day
[20] = tested on: Mycobacterium tuberculosis variant bovis BCG; assay: Bactericidal activity against Mycobacterium bovis BCG ATCC 35734 assessed as reduction in colony forming unit at 8 times MIC measured after 21 days by time-kill assay; format: functional, organism-based; details: time 21.0 day
[21] = tested on: Mycobacterium tuberculosis variant bovis BCG; assay: Bactericidal activity against Mycobacterium bovis BCG ATCC 35734 at 0.5 to 1 times MIC90 incubated for 5 days in presence of TEMPO; format: functional, organism-based; details: time 5.0 day

Row | SMILES | Activity [1] | Activity [2] | Activity [3] | fold change (FC) [4] | fold change (FC) [5] | Ratio [6] | Activity [7] | Activity [8] | MIC50 [9] [µM] | MIC90 [9] [µM] | MBC [10] [µM] | Activity [11] | fold change (FC) [12] | other results
1 | CCCCCCCn1c2c([n+](CCCCC)c1C)C(=O)c1ccccc1C2=O.[Br-] | inactive | inactive | Dose-Dependent Effect | 2 | 10 | < 2 | inactive | Active | 0.16 | 0.27 | 0.64 | Dose-Dependent Effect | 100000 | 
2 | CCCCCCCCn1c2c([n+](CCCC)c1C)C(=O)c1ccccc1C2=O.[Br-] | inactive | inactive | Dose-Dependent Effect | 2 | 10 | < 2 | inactive | Active | 0.15 | 0.26 | 0.64 | Dose-Dependent Effect | 100000 | Activity [13]: Active; Activity [14]: Active; Activity [15]: Active; Activity [16]: Active; Activity [17]: Active; fold change (FC) [18]: 4.7; Activity [19]: Active; Activity [20]: Active; Activity [21]: Active
